Test results published in patent US12053465B2, “KCC2 expression enhancing compounds and uses thereof” (Whitehead Institute for Biomedical Research, priority 2017, dated 2024).

Experiments:
[1] = test system: KCC2 expression (KCC2-2A-luciferase reporter); assay: KCC2-2A-luciferase reporter compound screening with wild type KCC2 reporter neurons; type: cell-based; details: WT human KCC2 reporter neurons; LINCS 0.5 μM, IRSF/SMART and ICCB 10 μM, one week; Luc/CTG normalized to in-plate DMSO; hit = B score >3
Text: In addition, CRISPR/Cas9 genome editing technology was utilized to insert a 2A-luciferase reporter gene directly before the stop codon of the endogenous KCC2 locus in human ES cells, thus creating wild type (WT) cells isogenic to the MECP2-null RTT human KCC2 reporter neurons. KCC2 expression reporter human neurons were differentiated from the gene-targeted ES cells and utilized as the substrate for unbiased compound screening (FIG. 6A; see also FIG. 1A).
Gene-targeted KCC2 reporter cells were used in a HTS pipeline to screen for small molecule compounds that enhance KCC2 gene expression (FIG. 1B; note that reporter neurons were adapted to 384 well format for some screens, and the same workflow was used both for WT KCC2 reporter neurons and RTT KCC2 reporter neurons). Six replicate screens were performed in WT KCC2 reporter neurons using the LINCS and SMART libraries as well as the ICCB known bioactive library (FIG. 6B).
(§1) The cells were dissociated with Accutase, resuspended in 10 ml neuronal differentiation medium to count cells. the final cell seeding density was 20 k-40 k cells per well for 96-well plates, and ˜10 k cells per well for 384-well plates. Matrigel was added to the cell suspension at a dilution ratio of 1:300 to promote cell adhesion after plating. AraC were added to the cell suspension at the concentration of 0.5 μM to inhibit astroglial cell division. The cells were dispensed into 96-well or 384-well plates (Coming) using a BioTek EL406 plate dispenser. […] The neurons were incubated with the compounds at 37° C./5% CO2 for a week before the luciferase assay.
For some screens, on the day of the luciferase assay, the cells were washed with PBS three times using a BioTek EL406 plate washer. Cell lysis buffer (Promega, E1941, 1:5 diluted with water) was added at a volume of 100 μl per well for 96-well plates and 30 μl per well for 384-well plates, and incubated at room temperature for 10 minutes to lyse the cells. A fraction of the cell lysate (30 ul for 96-well, 5 ul for 384-well) was transferred to a new white, opaque plate and Cell Titer-Glo (CTG, Promega, G7572, diluted 2:5 in water) was added and incubated for 20 minutes at room temperature. CTG measures cellular ATP levels as a surrogate for cell viability. The reporter luciferase signal was assayed in the original source plate using Bright-Glo reagent per the manufacturer's protocol (Promega, E1501, 10 ul for 96-well plates, 3 ul for 384-well plates). Assay readouts were performed on a Tecan M1000 Infinite plate reader. For data analysis, the luciferase signal was normalized to the CTG signal to control for number of live cells per well. The Luc/CTG ratio data were then normalized to the in-plate DMSO control to calculate the signal induction fold change. Screening data were processed with CellHTS2 software package to calculate B-score (94)

[2] = test system: KCC2 expression (KCC2-2A-luciferase reporter); assay: KCC2-2A-luciferase reporter compound screening with RTT KCC2 reporter neurons; type: cell-based, human; details: MECP2-null RTT human KCC2 reporter neurons; LINCS, SMART, ICCB libraries; Luc/CTG normalized to in-plate DMSO; hit = B score >3
Experimental: The RTT KCC2-2A-luciferase reporter neurons were treated with the test compounds from the LINCS kinase inhibitor library and IRSF SMART compound library and incubated before being lysed. The cell lysate was divided into two parts to measure luciferase signal (KCC2 translation) and Cell-Titer Glow (CTG, amount of ATP). The luciferase signal was normalized to CTG for each well, and the Luc/CTG ratio was normalized to the in-plate DMSO negative control to calculate fold change ratio.
Additional screens for reporter activation in the MECP2-null RTT human KCC2 reporter neurons (isogenic to the WT reporter cells used above) were performed with the LINCS and SMART libraries as well as the ICCB known bioactive library and identified hits as compounds with B score >3.
The cells were dissociated with Accutase and resuspended in 10 ml neuronal differentiation medium to count cells. The cells were then diluted to the final density of 200,000 to 500,000 cells/ml. Matrigel was added to the cell suspension at a dilution ratio of 1:300 to promote cell adhesion after plating. AraC was added to cell suspension at the concentration of 2 μM to inhibit cell division. The cells were plated into 96-well plates with an automated cell seeding machine using the following protocol: The neuron flask was washed with PBS. The neurons were digested off the plate with Accutase for 30 minutes at 37° C. Next, the dissociated cells were collected and spun down at 750 rpm for 5 minutes. The cell pellet was dissociated by gentle trituration with P1000 pipet and the cells were resuspended with 10 ml of neuronal medium. Then, the cells were filtered through a 40 μm cell strainer (Falcon) to get rid of clumps. The resulting single-cell suspension was counted using a Countess automated cell counter (Invitrogen Countess Automated Cell Counter, Catalog no. C10227). The neurons were resuspended with neuronal medium to 10× of the destination density (100,000 cells to 400,000 cells per ml). The cells were plated with a multichannel pipette, or proceeded to the machine-plating protocol described below:
The day after cell seeding, small molecule compounds from the IRSF (International Rett Syndrome Foundation) library were prepared at a concentration of 1 mM and dispensed into a blank V-bottomed test plates at 2 μl per well. Compound solvent DMSO was included in every plate as control. Using a liquid handling robot, about 80 μl of culture medium were discarded. Neuronal medium in the volume of 200 μl was added to the V-bottom test plate that contained 2 μl of 1 mM compounds, and mixed with compounds by pipetting up-and-down 3 times. The medium that contained the 10 μM compounds was then applied to the neuronal cell culture and incubated for 2 weeks before cell lysis and luciferase assay were performed.
as §1
The cells used for luciferase assay were KCC2 reporter neurons differentiated for 4 weeks, and treated with drug in 96-well format for 2 weeks. Cell density was between 20 k-40 k cells per well.
On the day of the luciferase assay, the cells were washed with PBS for two times, and 100 μl of cell lysis buffer was applied to the washed cells. The cell plates were transferred to a rocker to shake for 10 minutes in order to fully lyse the cells.

[3] = test system: KCC2 expression; assay: Western blot of KCC2 in organotypic mouse brain slices; type: cell-based; details: organotypic neonatal mouse brain slices, treated 7 days, vs DMSO, MeBIO or medium-only control
[4] = test system: human RTT neurons; assay: mEPSC whole-cell patch-clamp recording in cultured human RTT neurons; type: cell-based; details: cultured human RTT neurons
Text: (§2) Moreover, a reduction in the number or the strength of excitatory glutamatergic synapses in RTT neurons has been observed in postmortem RTT patient brain samples (30), mouse models of RTT (53), and human stem cell-derived RTT neurons (54). Electrophysiology recording was utilized to assess whether KEECs could rescue the deficits in EGABA and excitatory synaptic transmission of RTT neurons. […] We further investigated whether the beneficial effect of KEECs is a direct result of the increases in neuronal KCC2 gene expression. […] Deficits in a number of morphological measurements, including nuclei size and neurite complexity and branching, are hallmarks of RTT neurons (54-56). […] To validate the morphological measurements, electrophysiological measurements of the neuronal membrane capacitance (Cm), an indicator of neuronal cell size (57) that is reduced in RTT neurons, were conducted.
(§3) Functionally mature human neuron cultures were obtained by seeding human WT or isogenic RTT NPCs on a layer of primary mouse astrocyte culture as previously described (57). In the cultured WT human neurons, KCC2 expression reaches mature level between 2-3 months (7). We therefore treated the WT or RTT human neurons 8-12 weeks in culture, with compounds for a duration of two weeks before conducting whole-cell patch-clamp recording. The extracellular bath solution, that perfused the recording chamber, consists of (in mM): 120 NaCl, 30 glucose, 25 HEPES, 5 KCl, 2 CaCl2, 1 MgCl2. The pH was adjusted to 7.3 with NaOH. The high-chloride internal pipette solution consists of (in mM): 147 KCl, 5 Na-phosphocreatine, 2 EGTA, 10 HEPES, 4 MgATP, and 0.5 Na2GTP; the pH 7.3 was adjusted with KOH. To record mini EPSC, the membrane potential was held at −70 mV, and 0.5 μM of TTX and 50 μM Picrotoxin were applied with bath solution to block action potential and GABAergic synaptic transmission.
To evoke GABA response, a pipette filled with 100 μM GABA solution was positioned 5-10 μm away from the neuronal cell body. Air pulses at the pressure of 10 p.s.i. and duration of 100 ms were generated with a Picrospritzer (Parker Instrumentation) to puff GABA solution onto neuronal cell body. Neuronal response to GABA puffs were recorded at different membrane holding potentials from −90 mV to +30 mV, and the EGABA values were calculated with linear regression. Electrophysiological signals were recorded with Multiclamp 700A patch-clamp amplifier and data were collected with Clamp 9 software (Molecular Devices, Palo Alto, CA), sampled at 10 kHz and filtered at 1 KHz. Off-line data analyses of mEPSC synaptic events were performed with MiniAnalysis software (Synaptosoft, Decator, GA). All experiments were performed at room temperature. A sample size of 5-8 neurons was used for EGABA measurements, while a sample size of 14-19 neurons was used for mEPSC measurements. All data were presented as mean±SEM. ANOVA test followed by the Bonferroni correction were used for statistical analysis. The Kolmogorov-Smirnov test was employed to compare the cumulative distribution between two datasets.

[5] = test system: KCC2 expression; assay: Western blot of KCC2 in cultured WT human neurons; type: cell-based
[6] = test system: human RTT neurons; assay: Membrane capacitance (Cm) of cultured human RTT neurons; type: cell-based; details: cultured human RTT neurons; vs DMSO or MeBIO control
Text: as §2, §3

[7] = test system: KCC2 expression; assay: Western blot of KCC2 in cultured human RTT neurons; type: cell-based; details: cultured human RTT neurons; Western blot
Experimental: Protein samples were collected from cultured brain slices or cultured neurons in 12-well format with RIPA lysis buffer (in mM: 150 NaCl, 25 Tris-HCl, 1 EDTA, 1% NP-40, 1% sodium deoxycholate, 0.1% SDS, with protein kinase inhibitor and protease inhibitor, pH adjusted to 7.6). A sonication step was applied to homogenize tissue and extract protein, followed by a 10 minute centrifugation at 4° C. […] The PVDF membrane was blocked for 30 minutes with 5% milk in TBS+0.1% Tween 20 (TBST), and incubated overnight at 4° C. with primary antibodies diluted in TBST-milk at the following concentrations: KCC2 (1:2000, Millipore), NKCC1 (1:1000, Iowa Hybridoma bank), α-Tubulin (1:4000, Abcam), GAPDH (1:3000, Abcam), Actin (1:2000, Sigma Aldrich #A2066). The membrane was rinsed with TBST three times to wash off excess antibodies, and then incubated in secondary HRP antibodies in TBST-milk at 1:5000 concentration.
The PVDF membrane was then stripped using the Re-blot plus strong solution (Millipore), and re-immunoblotted for NKCC1 (˜150 kDa) to acquire KCC2/NKCC1 ratio. The area and intensity of protein signal was determined using ImageJ. The relative KCC2 and NKCC1 expression were calculated by normalizing protein signal to GAPDH or Tubulin loading control.

[8] = test system: immature mouse neurons; assay: Gramicidin-perforated patch recording of EGABA in DIV6-7 immature mouse neurons; type: cell-based

Compound	B Score [1]	B Score [2]	other results
O=C1Nc2ccccc2/C1=C1/Nc2ccccc2C1=O [Indirubin, (3Z)-3-(3-Oxo-1,3-dihydro-2H-indol-2-ylidene)-1,3-dihydro-2H-indol-2-one]	3.73	3.73	–
CN1C(=O)/C(=C2\Nc3ccccc3\C2=N/O)c2ccc(Br)cc21 [MeBIO]	–	–	KCC2 protein level [3]: does not alter KCC2 expression; frequency of mEPSCs [4]: failed to rescue synaptic deficits in RTT neurons; KCC2 expression ([5]; cultured WT human neurons (WIBR1), Western blot): failed to activate KCC2 expression; membrane capacitance (Cm) [6]: failed to change Cm
COC1=CC(=O)O[C@@H](/C=C/c2ccc3c(c2)OCO3)C1 [Methysticin, (2R)-2-[(E)-2-(1,3-Benzodioxol-5-yl)ethenyl]-4-methoxy-2,3-dihydropyran-6-one]	7.17	7.17	–
CC(C)(O)[C@H]1O[C@H]2CC[C@@]3(C)[C@@](O)(CC[C@H]4Cc5c([nH]c6ccccc56)[C@@]43C)C2=CC1=O [Paxilline, (2R,4bS,6aS,12bS,12cR,14aS)-5,6,6a,7,12,12b,12c,13,14,14a-Decahydro-4b-hydroxy-2-(1-hydroxy-1-methylethyl)-12b,12c-dimethyl-2H-pyrano[2″,3″:5',6']benz[1',2':6,7]indeno[1,2-b]indol-3(4bH)-one]	4.1	4.1	–
C[C@H](NCc1ccc(OCc2cccc(F)c2)cc1)C(N)=O [Safinamide, (2S)-2-[[4-[(3-fluorophenyl)methoxy]phenyl]methylamino] propanamide]	4.82	4.82	–
Nc1cccc(-c2cc3c(Oc4cccc(O)c4)ncnc3[nH]2)c1 [TWS-119, 3-[6-(3-Amino-phenyl)-7H-pyrrolo[2,3,-d]pyrimidin-4-yloxy]-phenol]	–	3.64	increase of KCC2 expression ([5]; WT neurons, 0.03 μM): more than two-fold; KCC2 expression [7]: significant increase in KCC2 expression; EGABA after treatment ([8]; DIV6-7 immature mouse neurons, untreated about −50 mV): about −70 mV; significant hyperpolarizing shift in EGABA ([8]; DIV6 cultured immature mouse neurons): induces significant hyperpolarizing shift in EGABA
